From paper PMC5218480 (PLoS ONE, 2017)

System: MV-4-11 cells
Assay: Gene expression microarray analysis (Affymetrix PrimeView) and GSEA
Type: cell-based, human
Set-up: RFU PODN (11730768_x_at) / Fold change /veh PODN (11730768_x_at) / RFU LINC00158 (11744669_a_at) / Fold change /veh LINC00158 (11744669_a_at) / RFU DUSP10 (11751237_a_at) / Fold change /veh DUSP10 (11751237_a_at) / RFU ID3 (11757404_x_at) / Fold change /veh ID3 (11757404_x_at) / RFU PLEKHG5 (11737974_s_at) / Fold change /veh PLEKHG5 (11737974_s_at) / RFU LRRC4B (11730491_at) / Fold change /veh LRRC4B (11730491_at) / RFU GIMAP4 (11747438_a_at) / Fold change /veh GIMAP4 (11747438_a_at) / RFU KRT8 (11758183_x_at) / Fold change /veh KRT8 (11758183_x_at) / RFU CNN1 (11734310_a_at) / Fold change /veh CNN1 (11734310_a_at) / RFU VPS37D (11726825_at) / Fold change /veh VPS37D (11726825_at) / RFU C10orf10 (11716522_x_at) / Fold change /veh C10orf10 (11716522_x_at) / RFU KIR2DL2 /// KIR2DL4 /// KIR2DL5A /// KIR2DL5B /// KIR2DS1 /// KIR2DS2 /// KIR2DS3 /// KIR2DS4 /// KIR3DL3 /// KIR3DL3 /// KIR3DS1 (11738374_at) / Fold change /veh KIR2DL2 /// KIR2DL4 /// KIR2DL5A /// KIR2DL5B /// KIR2DS1 /// KIR2DS2 /// KIR2DS3 /// KIR2DS4 /// KIR3DL3 /// KIR3DL3 /// KIR3DS1 (11738374_at) / RFU C1QL1 (11718748_at) / Fold change /veh C1QL1 (11718748_at) / RFU TMPRSS4 (11747572_a_at) / Fold change /veh TMPRSS4 (11747572_a_at) / RFU HAMP (11756126_x_at) / Fold change /veh HAMP (11756126_x_at) / RFU RNFT2 (11725882_a_at) / Fold change /veh RNFT2 (11725882_a_at) / RFU NR4A2 (11747474_a_at) / Fold change /veh NR4A2 (11747474_a_at) / RFU ABCC12 (11746883_a_at) / Fold change /veh ABCC12 (11746883_a_at) / RFU TMEM136 (11760407_x_at) / Fold change /veh TMEM136 (11760407_x_at) / RFU CLDN22 /// WWC2 (11732394_at) / Fold change /veh CLDN22 /// WWC2 (11732394_at) / RFU HLA-DPB1 (11760878_x_at) / Fold change /veh HLA-DPB1 (11760878_x_at) / RFU SPINT1 (11716480_a_at) / Fold change /veh SPINT1 (11716480_a_at) / RFU GAP43 (11754022_s_at) / Fold change /veh GAP43 (11754022_s_at) / RFU A4GNT (11735810_at) / Fold change /veh A4GNT (11735810_at) / RFU PRB3 (11715151_x_at) / Fold change /veh PRB3 (11715151_x_at) / RFU TUBB4B (11761932_at) / Fold change /veh TUBB4B (11761932_at) / RFU CAPN14 (11732068_a_at) / Fold change /veh CAPN14 (11732068_a_at) / RFU TMCC2 (11721928_a_at) / Fold change /veh TMCC2 (11721928_a_at) / RFU IRGQ (11745062_a_at) / Fold change /veh IRGQ (11745062_a_at) / RFU FAM174B (11720279_a_at) / Fold change /veh FAM174B (11720279_a_at) / RFU TMPRSS4 (11748680_a_at) / Fold change /veh TMPRSS4 (11748680_a_at) / RFU FAM212B (11763350_a_at) / Fold change /veh FAM212B (11763350_a_at) / RFU PLEKHG5 (11743358_a_at) / Fold change /veh PLEKHG5 (11743358_a_at) / RFU ZSCAN30 (11745921_a_at) / Fold change /veh ZSCAN30 (11745921_a_at) / RFU CMKLR1 (11741424_a_at) / Fold change /veh CMKLR1 (11741424_a_at) / RFU LOC101060620 /// MAPK8IP1 (11723275_at) / Fold change /veh LOC101060620 /// MAPK8IP1 (11723275_at) / RFU SPTSSB (11747773_x_at) / Fold change /veh SPTSSB (11747773_x_at) / RFU PRSS12 (11739890_at) / Fold change /veh PRSS12 (11739890_at) / RFU BIN1 (11741810_x_at) / Fold change /veh BIN1 (11741810_x_at) / RFU WNT11 (11732464_a_at) / Fold change /veh WNT11 (11732464_a_at) / RFU C10orf10 (11716521_a_at) / Fold change /veh C10orf10 (11716521_a_at) / RFU C5orf56 (11738089_at) / Fold change /veh C5orf56 (11738089_at) / RFU CYB561 (11721691_x_at) / Fold change /veh CYB561 (11721691_x_at) / RFU ANKRD19P (11752326_a_at) / Fold change /veh ANKRD19P (11752326_a_at) / RFU OR2T12 /// OR2T33 /// OR2T8 (11738714_s_at) / Fold change /veh OR2T12 /// OR2T33 /// OR2T8 (11738714_s_at) / RFU VCAN (11748164_a_at) / Fold change /veh VCAN (11748164_a_at) / RFU JSRP1 (11732532_at) / Fold change /veh JSRP1 (11732532_at) / RFU KRTAP10-11 (11738290_x_at) / Fold change /veh KRTAP10-11 (11738290_x_at) / RFU MYO3A (11730013_a_at) / Fold change /veh MYO3A (11730013_a_at) / RFU EBF3 (11725865_a_at) / Fold change /veh EBF3 (11725865_a_at) / RFU CAMK2N1 (11719241_x_at) / Fold change /veh CAMK2N1 (11719241_x_at) / RFU C5orf56 (11738088_a_at) / Fold change /veh C5orf56 (11738088_a_at) / RFU OLFML3 (11715873_a_at) / Fold change /veh OLFML3 (11715873_a_at) / RFU LOC100653217 /// NTM (11731650_a_at) / Fold change /veh LOC100653217 /// NTM (11731650_a_at) / RFU MAPK11 (11762145_a_at) / Fold change /veh MAPK11 (11762145_a_at) / RFU FIZ1 (11724087_x_at) / Fold change /veh FIZ1 (11724087_x_at) / RFU OASL (11726364_x_at) / Fold change /veh OASL (11726364_x_at) / RFU SOX15 (11748057_x_at) / Fold change /veh SOX15 (11748057_x_at) / RFU CD79A (11719716_a_at) / Fold change /veh CD79A (11719716_a_at) / RFU HIST1H1D (11736915_at) / Fold change /veh HIST1H1D (11736915_at) / RFU CASKIN2 (11723855_a_at) / Fold change /veh CASKIN2 (11723855_a_at) / RFU LOC730098 (11760151_x_at) / Fold change /veh LOC730098 (11760151_x_at) / RFU OR4N2 (11742367_at) / Fold change /veh OR4N2 (11742367_at) / RFU PRRT2 (11749266_a_at) / Fold change /veh PRRT2 (11749266_a_at) / RFU SNX32 (11753110_a_at) / Fold change /veh SNX32 (11753110_a_at) / RFU CDHR5 (11726645_a_at) / Fold change /veh CDHR5 (11726645_a_at) / RFU RCAN1 (11760418_a_at) / Fold change /veh RCAN1 (11760418_a_at) / RFU FAM167A (11723789_a_at) / Fold change /veh FAM167A (11723789_a_at) / RFU FAM26E (11764081_at) / Fold change /veh FAM26E (11764081_at) / RFU ISYNA1 (11749810_s_at) / Fold change /veh ISYNA1 (11749810_s_at) / RFU ACY1 (11761880_at) / Fold change /veh ACY1 (11761880_at) / RFU 11764098_at / Fold change /veh 11764098_at / RFU SAMD14 (11745864_x_at) / Fold change /veh SAMD14 (11745864_x_at) / RFU NPB (11741838_a_at) / Fold change /veh NPB (11741838_a_at) / RFU TMPRSS6 (11731388_a_at) / Fold change /veh TMPRSS6 (11731388_a_at) / RFU KRTAP10-2 (11738614_at) / Fold change /veh KRTAP10-2 (11738614_at) / RFU ARHGAP8 /// PRR5-ARHGAP8 (11727945_x_at) / Fold change /veh ARHGAP8 /// PRR5-ARHGAP8 (11727945_x_at) / RFU KRTAP5-7 /// NADSYN1 (11734609_at) / Fold change /veh KRTAP5-7 /// NADSYN1 (11734609_at) / RFU RASL12 (11751679_a_at) / Fold change /veh RASL12 (11751679_a_at) / RFU CDKN2B (11736163_a_at) / Fold change /veh CDKN2B (11736163_a_at) / RFU PRF1 (11729649_at) / Fold change /veh PRF1 (11729649_at) / RFU, ZNF638 /// ZNF638-IT1 / Fold change vs veh, ZNF638 /// ZNF638-IT1 / RFU, PANK3 / Fold change vs veh, PANK3 / RFU, SH3YL1 / Fold change vs veh, SH3YL1 / RFU, ZEB2 / Fold change vs veh, ZEB2 / RFU, NRIP1 / Fold change vs veh, NRIP1 / RFU, PTTG1IP / Fold change vs veh, PTTG1IP / RFU, CAPN2 / Fold change vs veh, CAPN2 / RFU, MED14 / Fold change vs veh, MED14 / RFU, SNORA58 / Fold change vs veh, SNORA58 / RFU, C1orf63 / Fold change vs veh, C1orf63 / RFU, LRRFIP1 / Fold change vs veh, LRRFIP1 / RFU, NDUFAF7 / Fold change vs veh, NDUFAF7 / RFU, SLC12A2 / Fold change vs veh, SLC12A2 / RFU, IBTK / Fold change vs veh, IBTK / RFU, ESF1 / Fold change vs veh, ESF1 / Fold change vs veh, TMEM50B / RFU, TAOK1 / Fold change vs veh, TAOK1 / RFU, ACBD3 / Fold change vs veh, ACBD3 / RFU, TMA16 / Fold change vs veh, TMA16 / RFU, RWDD3 / Fold change vs veh, RWDD3 / RFU, BCAT1 / Fold change vs veh, BCAT1 / RFU, EDEM3 / Fold change vs veh, EDEM3 / RFU, TMEM33 / Fold change vs veh, TMEM33 / RFU, WDR75 / Fold change vs veh, WDR75 / RFU, AHCTF1 / Fold change vs veh, AHCTF1 / RFU, TFRC / Fold change vs veh, TFRC / RFU, ZDHHC17 / Fold change vs veh, ZDHHC17 / RFU, NOM1 / Fold change vs veh, NOM1 / RFU, ARL8B / Fold change vs veh, ARL8B / RFU, ZBTB11 / Fold change vs veh, ZBTB11 / RFU, TAMM41 / Fold change vs veh, TAMM41 / RFU, KIAA1704 /// LOC100996395 / Fold change vs veh, KIAA1704 /// LOC100996395 / RFU, ING1 / Fold change vs veh, ING1 / RFU, TRMT61B / Fold change vs veh, TRMT61B / RFU, FUBP3 / Fold change vs veh, FUBP3 / RFU, TP53 / Fold change vs veh, TP53 / RFU, TNKS2 / Fold change vs veh, TNKS2 / RFU, ZFP14 / Fold change vs veh, ZFP14 / RFU, ACTR2 / Fold change vs veh, ACTR2 / RFU, PPP3R1 / Fold change vs veh, PPP3R1 / RFU, PIK3R1 / Fold change vs veh, PIK3R1 / RFU, HNRNPA1 / Fold change vs veh, HNRNPA1 / RFU, RNF170 / Fold change vs veh, RNF170 / RFU, ZNF28 / Fold change vs veh, ZNF28 / RFU, RNGTT / Fold change vs veh, RNGTT / RFU, OGT / Fold change vs veh, OGT / RFU, BRD1 / Fold change vs veh, BRD1 / RFU, MARS / Fold change vs veh, MARS / RFU, ZNF655 / Fold change vs veh, ZNF655 / RFU, FAHD1 / Fold change vs veh, FAHD1 / RFU, BDP1 / Fold change vs veh, BDP1 / RFU, LRRCC1 / Fold change vs veh, LRRCC1 / RFU, ARID1A / Fold change vs veh, ARID1A / RFU, ZNF146 / Fold change vs veh, ZNF146 / RFU, ZNF330 / Fold change vs veh, ZNF330 / RFU, GPN3 / Fold change vs veh, GPN3 / RFU, C9orf123 / Fold change vs veh, C9orf123 / RFU, N4BP2L2 / Fold change vs veh, N4BP2L2 / RFU, ARFIP1 / Fold change vs veh, ARFIP1 / RFU, FAM179B / Fold change vs veh, FAM179B / RFU, BCL10 / Fold change vs veh, BCL10 / RFU, UHRF1BP1L / Fold change vs veh, UHRF1BP1L / RFU, BET1 / Fold change vs veh, BET1 / RFU, CNOT2 / Fold change vs veh, CNOT2 / RFU, ZNF268 / Fold change vs veh, ZNF268 / Fold change vs veh, ZNF507 / RFU, DGCR2 / Fold change vs veh, DGCR2 / RFU, WDSUB1 / Fold change vs veh, WDSUB1 / Fold change vs veh, HSP90B1 /// MIR3652 / RFU, ADSS / Fold change vs veh, ADSS / RFU, GK / Fold change vs veh, GK / RFU, ZNF148 / Fold change vs veh, ZNF148 / RFU, TAF9 / Fold change vs veh, TAF9 / RFU, SLC1A5 / Fold change vs veh, SLC1A5 / RFU, SLMO2 / Fold change vs veh, SLMO2 / RFU, ABCC4 / Fold change vs veh, ABCC4 / RFU, LOC101060439 /// RAP1B / Fold change vs veh, LOC101060439 /// RAP1B / RFU, RFX7 / Fold change vs veh, RFX7 / RFU, GTPBP10 / Fold change vs veh, GTPBP10 / RFU, CNEP1R1 / Fold change vs veh, CNEP1R1 / RFU, BIVM-ERCC5 /// ERCC5 / Fold change vs veh, BIVM-ERCC5 /// ERCC5 / RFU, ILF3 / Fold change vs veh, ILF3 / RFU 11762660_at / Fold change /veh 11762660_at / RFU VCAN (11757783_s_at) / Fold change /veh VCAN (11757783_s_at) / RFU DDX43 (11728927_at) / Fold change /veh DDX43 (11728927_at) / RFU KRT8 (11758188_x_at) / Fold change /veh KRT8 (11758188_x_at) / RFU NKD1 (11759106_at) / Fold change /veh NKD1 (11759106_at) / RFU SRD5A1 (11742802_a_at) / Fold change /veh SRD5A1 (11742802_a_at) / RFU TPSAB1 /// TPSB2 (11721975_s_at) / Fold change /veh TPSAB1 /// TPSB2 (11721975_s_at) / RFU GSTM3 (11746129_a_at) / Fold change /veh GSTM3 (11746129_a_at) / RFU IL23R (11737362_x_at) / Fold change /veh IL23R (11737362_x_at) / RFU TMEM51 (11727254_a_at) / Fold change /veh TMEM51 (11727254_a_at) / RFU PIWIL2 (11732686_x_at) / Fold change /veh PIWIL2 (11732686_x_at) / RFU ORM1 (11744905_x_at) / Fold change /veh ORM1 (11744905_x_at) / RFU CCDC152 (11743942_at) / Fold change /veh CCDC152 (11743942_at) / RFU ECM1 (11717891_a_at) / Fold change /veh ECM1 (11717891_a_at) / RFU IL23R (11748794_a_at) / Fold change /veh IL23R (11748794_a_at) / RFU TNFAIP8L3 (11732012_x_at) / Fold change /veh TNFAIP8L3 (11732012_x_at) / RFU MBOAT4 (11741988_at) / Fold change /veh MBOAT4 (11741988_at) / RFU 11764193_at / Fold change /veh 11764193_at / RFU TMEM53 (11763286_at) / Fold change /veh TMEM53 (11763286_at) / RFU MAGEB2 (11727129_at) / Fold change /veh MAGEB2 (11727129_at) / RFU TMEM200A (11744735_a_at) / Fold change /veh TMEM200A (11744735_a_at) / RFU CCDC152 (11751479_a_at) / Fold change /veh CCDC152 (11751479_a_at) / RFU FAM211A (11726209_a_at) / Fold change /veh FAM211A (11726209_a_at) / RFU RGS16 (11746705_a_at) / Fold change /veh RGS16 (11746705_a_at) / RFU VCAN (11755009_s_at) / Fold change /veh VCAN (11755009_s_at) / RFU RHOB (11743442_s_at) / Fold change /veh RHOB (11743442_s_at) / RFU RGS16 (11720943_a_at) / Fold change /veh RGS16 (11720943_a_at) / RFU RGS16 (11720944_at) / Fold change /veh RGS16 (11720944_at) / RFU, VPS4B / Fold change vs veh, VPS4B / RFU, CREB1 / Fold change vs veh, CREB1 / RFU, DNAJC13 / Fold change vs veh, DNAJC13 / RFU, GNAQ / Fold change vs veh, GNAQ / RFU, CDK5R1 / Fold change vs veh, CDK5R1 / RFU, ZRANB3 / Fold change vs veh, ZRANB3 / RFU, CUL4A / Fold change vs veh, CUL4A / RFU, CCNY / Fold change vs veh, CCNY / RFU, UFL1 / Fold change vs veh, UFL1 / RFU, COG3 / Fold change vs veh, COG3 / RFU, DIAPH2 / Fold change vs veh, DIAPH2 / RFU, SKA2 / Fold change vs veh, SKA2 / RFU, AFF3 / Fold change vs veh, AFF3 / RFU, LMF1 / Fold change vs veh, LMF1 / RFU, IPO11 / Fold change vs veh, IPO11 / RFU, DFFB / Fold change vs veh, DFFB / RFU, FOXP1 / Fold change vs veh, FOXP1 / RFU, CARD8 / Fold change vs veh, CARD8 / RFU, STRN3 / Fold change vs veh, STRN3 / RFU, ADK / Fold change vs veh, ADK / RFU, RASSF2 / Fold change vs veh, RASSF2 / RFU, WIPF1 / Fold change vs veh, WIPF1 / RFU, LARP1B / Fold change vs veh, LARP1B / RFU, RASA1 / Fold change vs veh, RASA1 / RFU, RB1 / Fold change vs veh, RB1 / RFU, PPFIA1 / Fold change vs veh, PPFIA1 / RFU, MAT2A / Fold change vs veh, MAT2A / RFU, CCT5 / Fold change vs veh, CCT5 / RFU, WDR92 / Fold change vs veh, WDR92 / RFU, CUX1 / Fold change vs veh, CUX1 / RFU, TTC7A / Fold change vs veh, TTC7A / RFU, TMEM135 / Fold change vs veh, TMEM135 / RFU, DEPTOR / Fold change vs veh, DEPTOR / RFU, CPM / Fold change vs veh, CPM / RFU, DNAJB6 / Fold change vs veh, DNAJB6 / RFU, CACNA2D3 / Fold change vs veh, CACNA2D3 / RFU, DTX4 / Fold change vs veh, DTX4 / RFU, TFCP2 / Fold change vs veh, TFCP2 / RFU, GMCL1 /// GMCL1P1 / Fold change vs veh, GMCL1 /// GMCL1P1 / RFU, AEBP2 / Fold change vs veh, AEBP2 / RFU, SNHG1 /// SNORD22 /// SNORD25 /// SNORD26 /// SNORD27 /// SNORD28 /// SNORD29 /// SNORD31 / Fold change vs veh, SNHG1 /// SNORD22 /// SNORD25 /// SNORD26 /// SNORD27 /// SNORD28 /// SNORD29 /// SNORD31 / Fold change (Aza/veh), C12orf56 (ProbeSet 11735607_a_at) / Fold change (ACY-1035/veh), C12orf56 (ProbeSet 11735607_a_at) / Fold change (Aza/veh), FGFR1OP (ProbeSet 11751329_s_at) / Fold change (ACY-1035/veh), FGFR1OP (ProbeSet 11751329_s_at) / Fold change (Aza/veh), VPS36 (ProbeSet 11739960_a_at) / Fold change (ACY-1035/veh), VPS36 (ProbeSet 11739960_a_at) / RFU SYPL1 (11715823_x_at) / Fold change /veh SYPL1 (11715823_x_at) / RFU IGFBP7 (11715501_s_at) / Fold change /veh IGFBP7 (11715501_s_at) / RFU REEP3 (11722064_at) / Fold change /veh REEP3 (11722064_at) / RFU IGLL1 (11728026_x_at) / Fold change /veh IGLL1 (11728026_x_at): dose or concentration left out as unconfirmed
Conditions: ProbeSet 11730252_s_at; LIST B

SMILES: Nc1ncn([C@@H]2O[C@H](CO)[C@@H](O)[C@H]2O)c(=O)n1 [azacitidine]
- RFU, AHCTF1: 220.95 RFU
